Broadly, the pIC50 is −log10 of the IC50, conventionally taken in molar units. A higher pIC50 goes with a low IC50.

pIC50: −log10 of the molar value.

Consider 20 compounds from patent publication US20230117470A1, “SUBSTITUTED PYRAZOLE COMPOUNDS AS TOLL RECEPTOR INHIBITORS” (BRISTOL-MYERS SQUIBB COMPANY, priority 2019, published 2023).

Holding throughout (format): cell-based
For one assay, the target named is T1, human TLR7 (Homo sapiens, UniProt Q9NYK1).
T1 construct: host or cells: HEK-Blue cells
T1 sequence (Q9NYK1 27-1049): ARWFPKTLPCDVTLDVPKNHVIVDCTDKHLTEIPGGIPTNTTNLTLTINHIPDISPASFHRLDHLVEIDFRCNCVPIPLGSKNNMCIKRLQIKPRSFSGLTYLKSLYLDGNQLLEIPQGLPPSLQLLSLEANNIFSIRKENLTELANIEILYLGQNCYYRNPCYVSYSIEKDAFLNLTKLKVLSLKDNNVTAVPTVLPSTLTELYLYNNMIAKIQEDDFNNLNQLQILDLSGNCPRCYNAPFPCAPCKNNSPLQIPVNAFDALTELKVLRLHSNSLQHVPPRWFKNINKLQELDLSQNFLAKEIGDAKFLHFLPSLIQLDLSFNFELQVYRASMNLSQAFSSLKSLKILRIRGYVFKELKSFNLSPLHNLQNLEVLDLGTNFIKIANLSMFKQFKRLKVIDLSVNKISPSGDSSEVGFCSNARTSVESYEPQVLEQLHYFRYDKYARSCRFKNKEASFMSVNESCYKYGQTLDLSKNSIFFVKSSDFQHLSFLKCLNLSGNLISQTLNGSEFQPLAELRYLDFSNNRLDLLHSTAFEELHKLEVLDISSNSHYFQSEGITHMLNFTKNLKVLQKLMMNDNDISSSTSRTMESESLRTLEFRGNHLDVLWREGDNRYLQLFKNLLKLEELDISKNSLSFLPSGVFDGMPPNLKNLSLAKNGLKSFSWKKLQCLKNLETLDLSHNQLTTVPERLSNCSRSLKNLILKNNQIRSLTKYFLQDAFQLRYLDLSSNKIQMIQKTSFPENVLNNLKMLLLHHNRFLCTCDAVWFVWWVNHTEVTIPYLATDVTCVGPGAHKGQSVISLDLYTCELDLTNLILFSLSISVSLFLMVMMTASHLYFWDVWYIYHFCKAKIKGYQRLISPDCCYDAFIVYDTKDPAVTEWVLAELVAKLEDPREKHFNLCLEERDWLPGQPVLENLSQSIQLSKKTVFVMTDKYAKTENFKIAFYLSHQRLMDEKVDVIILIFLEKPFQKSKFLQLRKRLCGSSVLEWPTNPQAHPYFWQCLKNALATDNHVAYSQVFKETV
Put plainly: TLR7 inhibition reporter assay (HEK-Blue cells, SEAP reporter, gardiquimod stimulation). To be noted: HEK-Blue cells overexpressing human TLR7, SEAP reporter, gardiquimod 7.5 μM. Summed up: (§1)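 Percent inhibition of agonist-induced SEAP, set between agonist+DMSO wells and known-inhibitor wells, after 22 h at 37° C. Compounds (0.05 nM-50 μM final) were added 30 min at room temperature before ligand: gardiquimod 7.5 μM for TLR7, R848 15.9 μM for TLR8, ODN2006 5 nM for TLR9. Human receptors overexpressed in HEK-Blue reporter cells.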
For orientation: Reporter assays use an easily measured gene product as a stand-in for the process of interest.

The target in another assay is T2, human TLR8 (Homo sapiens, UniProt Q9NR97).
T2 construct: host or cells: HEK-Blue cells
T2 sequence (Q9NR97 27-1041): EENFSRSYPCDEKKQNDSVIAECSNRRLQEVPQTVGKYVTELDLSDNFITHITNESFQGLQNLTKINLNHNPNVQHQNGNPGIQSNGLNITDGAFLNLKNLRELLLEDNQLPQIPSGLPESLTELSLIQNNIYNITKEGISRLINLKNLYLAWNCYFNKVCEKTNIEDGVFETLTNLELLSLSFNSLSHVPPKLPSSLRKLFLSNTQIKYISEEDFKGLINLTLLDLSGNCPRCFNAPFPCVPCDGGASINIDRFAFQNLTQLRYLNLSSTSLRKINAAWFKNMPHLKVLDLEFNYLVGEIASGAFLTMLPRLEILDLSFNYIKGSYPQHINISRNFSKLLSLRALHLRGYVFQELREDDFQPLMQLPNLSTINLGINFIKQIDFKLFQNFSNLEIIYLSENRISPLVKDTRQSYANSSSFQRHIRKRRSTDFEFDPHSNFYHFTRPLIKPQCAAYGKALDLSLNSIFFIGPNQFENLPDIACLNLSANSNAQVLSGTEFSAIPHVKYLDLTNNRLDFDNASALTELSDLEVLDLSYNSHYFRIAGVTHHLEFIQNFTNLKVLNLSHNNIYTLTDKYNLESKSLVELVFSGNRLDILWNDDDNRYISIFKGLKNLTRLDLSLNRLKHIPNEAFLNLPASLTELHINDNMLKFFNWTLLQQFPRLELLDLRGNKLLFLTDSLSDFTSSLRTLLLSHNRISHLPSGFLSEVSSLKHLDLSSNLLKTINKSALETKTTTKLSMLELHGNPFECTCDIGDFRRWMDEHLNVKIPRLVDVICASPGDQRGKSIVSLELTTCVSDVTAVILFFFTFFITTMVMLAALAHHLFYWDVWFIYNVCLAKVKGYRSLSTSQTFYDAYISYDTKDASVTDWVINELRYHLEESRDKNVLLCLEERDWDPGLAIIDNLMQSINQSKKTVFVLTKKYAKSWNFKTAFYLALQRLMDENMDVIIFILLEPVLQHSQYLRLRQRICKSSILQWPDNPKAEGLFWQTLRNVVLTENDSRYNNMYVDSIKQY
Put plainly: TLR8 inhibition reporter assay (HEK-Blue cells, SEAP reporter, R848 stimulation). To be noted: HEK-Blue cells overexpressing human TLR8, SEAP reporter, R848 15.9 μM. Summed up:
as §1

The target in another assay is T3, human TLR9 (Homo sapiens, UniProt Q9NR96).
T3 construct: host or cells: HEK-Blue cells
T3 sequence (Q9NR96 26-1032): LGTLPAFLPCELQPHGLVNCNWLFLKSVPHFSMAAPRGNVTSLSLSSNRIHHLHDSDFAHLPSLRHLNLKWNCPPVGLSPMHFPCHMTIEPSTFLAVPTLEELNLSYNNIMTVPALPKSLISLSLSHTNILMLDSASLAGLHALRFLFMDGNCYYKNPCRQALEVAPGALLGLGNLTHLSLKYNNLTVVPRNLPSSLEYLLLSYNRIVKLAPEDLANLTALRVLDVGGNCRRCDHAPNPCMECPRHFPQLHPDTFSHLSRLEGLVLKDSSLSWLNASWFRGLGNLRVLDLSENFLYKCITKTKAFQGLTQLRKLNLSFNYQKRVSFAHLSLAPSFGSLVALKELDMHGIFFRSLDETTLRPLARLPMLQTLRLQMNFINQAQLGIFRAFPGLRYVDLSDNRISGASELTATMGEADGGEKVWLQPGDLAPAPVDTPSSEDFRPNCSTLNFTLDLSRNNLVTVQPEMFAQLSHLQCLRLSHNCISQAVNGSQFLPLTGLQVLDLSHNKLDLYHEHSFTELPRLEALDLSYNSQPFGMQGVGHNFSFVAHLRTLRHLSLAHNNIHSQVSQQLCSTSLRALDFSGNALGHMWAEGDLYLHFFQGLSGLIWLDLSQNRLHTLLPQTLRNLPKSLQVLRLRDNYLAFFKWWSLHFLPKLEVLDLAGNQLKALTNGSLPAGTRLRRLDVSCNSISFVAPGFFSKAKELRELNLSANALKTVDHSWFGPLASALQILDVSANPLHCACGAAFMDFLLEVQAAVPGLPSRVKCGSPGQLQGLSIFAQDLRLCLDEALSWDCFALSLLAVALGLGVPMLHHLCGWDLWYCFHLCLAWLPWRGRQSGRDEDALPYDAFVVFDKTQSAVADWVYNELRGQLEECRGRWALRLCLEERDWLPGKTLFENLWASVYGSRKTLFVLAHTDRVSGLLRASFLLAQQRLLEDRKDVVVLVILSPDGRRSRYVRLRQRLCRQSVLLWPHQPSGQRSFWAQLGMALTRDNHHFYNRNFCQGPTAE
Put plainly: TLR9 inhibition reporter assay (HEK-Blue cells, SEAP reporter, ODN2006 stimulation). To be noted: HEK-Blue cells overexpressing human TLR9, SEAP reporter, ODN2006 5 nM. In short, it runs like this:
as §1

For `COc1cc(-c2[nH]nc(-c3ccc(C4CN(CCS(C)(=O)=O)C4)cc3)c2C(C)C)cn2ncnc12` [Example 338], the pIC50 was 8.00 on human TLR7, 7.51 at human TLR8 and 4.34 against human TLR9.

For the compound `Cc1cc(-c2[nH]nc(C3CCN(C(=O)CN(C)C)CC3)c2C(C)C)cn2ncnc12` [compound 209], the pIC50 was 9.49 at human TLR7, 9.85 at human TLR8 and 5.38 against human TLR9.

In the case of `COc1cc(-c2[nH]nc(-c3cnc(C4CCN(CC(C)C)CC4)cn3)c2C(C)C)cn2ncnc12` [Example 379], the pIC50 is 7.25 against human TLR7, 7.64 on human TLR8 and 4.55 at human TLR9.

For `Cc1cc(-c2[nH]nc(-c3cnc(N)nc3)c2C(C)C)cn2ncnc12` [Example 228], the values for the negative-log IC50 (pIC50) against human TLR7, on human TLR8 and against human TLR9 were 8.66, 8.84 and 5.05, respectively.

Turning to `Cc1cc(-c2[nH]nc(-c3ccc4c(c3)CCN(C(C)C)C4)c2C(C)C)cn2ncnc12` [Example 246], the pIC50 against human TLR7 is 7.22; against human TLR8, 6.81; against human TLR9 it was less than 4.30.

Take `CCN1CCC(c2ccc(-c3n[nH]c(-c4cc(C)c5ncnn5c4)c3C(C)C)cn2)CC1` [Example 360]: the pIC50 is 5.91 at human TLR7, 5.88 at human TLR8 and less than 4.30 against human TLR9.

In the case of `CNC1CCC(c2n[nH]c(-c3cc(C)c4ncnn4c3)c2C(C)C)CC1` (single isomer, unassigned) [Example 295], the pIC50 was 8.31 on human TLR7, 9.55 against human TLR8 and 5.01 against human TLR9.

Take `Cc1cc(-c2[nH]nc(C3CCC(N(C)C(=O)C4CN(C)C4)CC3)c2C(C)C)cn2ncnc12` (stereo not drawn) [Example 300, N-(4-(4-isopropyl-5-(8-methyl-[1,2,4]triazolo[1,5-a]pyridin-6-yl)-1H-pyrazol-3-yl)cyclohexyl)-N,1-dimethylazetidine-3-carboxamide]: the pIC50 is 7.97 against human TLR7, 8.49 against human TLR8 and 5.00 against human TLR9.

For the compound `Cc1cc(-c2[nH]nc(C(=O)N(C)CCC#N)c2C(C)C)cn2ncnc12` [Example 16], the pIC50 was 8.51 against human TLR7, 8.56 against human TLR8 and 4.36 against human TLR9.

Turning to `COCCNc1ccc2nc(-c3n[nH]c(-c4cc(C)c5ncnn5c4)c3C(C)C)sc2c1` [Example 267], the pIC50 on human TLR7 was 7.61; against human TLR8, 8.15; at human TLR9 it was less than 4.30.

With `Cc1cc(-c2[nH]nc(-c3ccc(C4CCN(CC(C)(C)C)CC4)cc3)c2C(C)C)cn2ncnc12` [Example 317], the pIC50 on human TLR7 is 8.02; on human TLR8, 8.37; on human TLR9 it was 4.35.

Take `Cc1cc(-c2[nH]nc(C(=O)N[C@H]3CC[C@H](NC(C)C(C)C)CC3)c2C(C)C)cn2ncnc12` (stereo partly drawn) [Example 118]: the values for the pIC50 at human TLR7, on human TLR8 and against human TLR9 were 8.70, 8.90 and 5.48, respectively.

On to `Cc1cc(-c2[nH]nc(-c3nc4c(s3)CN(CC(C)(C)O)CC4)c2C(C)C)cn2ncnc12` [Example 265], for which the results for the pIC50 against human TLR7, against human TLR8 and against human TLR9 were 7.85, 8.48 and 4.32, respectively.

For `Cc1cc(-c2[nH]nc(-c3ccc(C4CCN(C(C)C)CC4)cc3)c2C(C)C)cn2ncnc12` [Example 307, 6-(4-isopropyl-3-(4-(1-isopropylpiperidin-4-yl)phenyl)-1H-pyrazol-5-yl)-8-methyl-[1,2,4]triazolo[1,5-a]pyridine], the pIC50 at human TLR7 was 6.93; on human TLR8, 8.03; on human TLR9 it was less than 4.30.

For `Cc1cc(-c2[nH]nc(C(=O)NC[C@H]3CC[C@H](N)CC3)c2C(C)C)cn2ncnc12` [Example 47], the pIC50 is 8.53 against human TLR7, 9.25 against human TLR8 and 5.16 against human TLR9.

As for `Cc1cc(-c2[nH]nc(C3CCN(CC(=O)N(C)C)CC3)c2C(C)C)cn2ncnc12` [compound 212], the negative logarithm of the IC50 (pIC50) is 9.21 at human TLR7, 9.20 at human TLR8 and 5.13 on human TLR9.

`Cc1cc(-c2[nH]nc(-c3ccc(C4CCNCC4)nc3)c2C(C)C)cn2ncnc12` [Example 340]: the pIC50 against human TLR7 was 8.33; at human TLR8 it was 8.47; on human TLR9, 5.28.

As to `Cc1cc(-c2[nH]nc(-c3cncc(NC(C)C)c3)c2C(C)C)cn2ncnc12` [Example 239], the pIC50 is 8.71 against human TLR7, 9.57 on human TLR8 and 5.00 against human TLR9.

On to `COc1cc(-c2[nH]nc(-c3cnc(C4CCN(CCCF)CC4)cn3)c2C(C)C)cn2ncnc12` [Example 399], for which the values for the negative logarithm of the IC50 (pIC50) at human TLR7, against human TLR8 and on human TLR9 were 6.90, 6.88 and less than 4.30, respectively.

Take `COc1cc(-c2[nH]nc(-c3ccc(C4CCN(CC(F)(F)F)CC4)cc3)c2C(C)C)cn2ncnc12` [Example 320]: the pIC50 on human TLR7 is 8.36; on human TLR8, 8.89; against human TLR9 it was 4.66.
